# Experimental data from ChEMBL document CHEMBL1130488, “1,4-Diaryl-2-oxo-1,2-dihydro-quinoline-3-carboxylic acids as endothelin receptor antagonists” (Bioorg Med Chem Lett, 1997).
# Target: T1, Endothelin-1 receptor (Rattus norvegicus, UniProt P26684)
# T1 sequence (P26684 whole entry): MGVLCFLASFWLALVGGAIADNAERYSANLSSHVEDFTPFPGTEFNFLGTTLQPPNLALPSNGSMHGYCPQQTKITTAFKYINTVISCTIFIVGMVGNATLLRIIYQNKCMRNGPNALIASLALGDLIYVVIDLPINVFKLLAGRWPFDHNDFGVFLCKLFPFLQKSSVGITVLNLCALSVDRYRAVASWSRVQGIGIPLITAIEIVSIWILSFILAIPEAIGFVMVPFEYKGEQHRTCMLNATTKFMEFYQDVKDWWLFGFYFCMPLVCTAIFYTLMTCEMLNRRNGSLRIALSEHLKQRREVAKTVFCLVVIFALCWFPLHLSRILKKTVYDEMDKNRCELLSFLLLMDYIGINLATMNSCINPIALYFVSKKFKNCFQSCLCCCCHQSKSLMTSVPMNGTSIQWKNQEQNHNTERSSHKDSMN
# Assay: Functional antagonism against ETA receptor in rat aortic rings expressed as pA2 value
# Settings: read-out: pA2 (converted)
row,Kb,SMILES
1,6.31 µM,CCOc1ccc2c(c1)c(-c1ccc(OC)cc1)c(C(=O)O)c(=O)n2Cc1cc(OC)ccc1OC
2,0.398 µM,CCOc1ccc2c(c1)c(-c1ccc3c(c1)OCO3)c(C(=O)O)n2Cc1ccc(OC)cc1

# Target: T1, Endothelin-1 receptor
# Assay: Inhibition of [125I]ET1 binding to rat aorta membranes(ETA)
# Format: cell membranes, Membrane
# Settings: not given
row,SMILES,IC50
1,CCOc1ccc2c(c1)c(-c1ccc(OC)cc1)c(C(=O)O)c(=O)n2Cc1cc(OC)ccc1OC,260 nM
2,CCOc1ccc2c(c1)c(-c1ccc3c(c1)OCO3)c(C(=O)O)n2Cc1ccc(OC)cc1,130000 nM
3,COc1ccccc1Cn1c(=O)c(CC(=O)O)c(-c2ccc3c(c2)OCO3)c2ccccc21,> 10000 nM
4,COc1ccc(Cn2c(=O)c(C(=O)O)c(-c3ccc4c(c3)OCO4)c3ccccc32)cc1,2400 nM
5,CCOc1ccc2c(c1)c(-c1ccc(OC)cc1)c(C(=O)O)c(=O)n2Cc1ccccc1OC,1300 nM
6,COc1cccc(Cn2c(=O)c(C(=O)O)c(-c3ccc4c(c3)OCO4)c3ccccc32)c1,> 10000 nM
7,COc1ccccc1Cn1c(=O)c(C(=O)O)c(-c2ccc3c(c2)OCO3)c2c(OC)c(OC)ccc21,3300 nM
8,COc1ccccc1Cn1c(=O)c(C(=O)O)c(-c2ccc3c(c2)OCO3)c2ccccc21,2000 nM

# Further lines, results first:
row,IC50,SMILES
1,1500 nM,CCc1ccc2c(c1)c(-c1ccc3c(c1)OCO3)c(C(=O)O)c(=O)n2Cc1ccccc1OC
2,380 nM,CCOc1ccc2c(c1)c(-c1ccc3c(c1)OCO3)c(C(=O)O)c(=O)n2Cc1ccccc1OC
3,> 10000 nM,O=C(O)c1c(-c2ccc3c(c2)OCO3)c2ccccc2n(Cc2ccccc2)c1=O
4,1200 nM,CCOc1ccc2c(c1)c(-c1ccc(OC)cc1OC)c(C(=O)O)c(=O)n2Cc1ccccc1OC
5,2600 nM,O=C(O)c1c(-c2ccc3c(c2)OCO3)c2ccccc2n(Cc2ccc3c(c2)OCO3)c1=O
